Results: patent publication US12049483B2, “Selective and noncovalent inhibitors of oncogenic RAS mutants” (New York University, priority 2020, dated 2024)

What was measured:
KRAS(WT) = target: T1, KRAS(WT) (Homo sapiens, UniProt P01116); test: Yeast display binding titration, KRAS(WT); conditions: either nucleotide-bound form
T1 construct: KRAS4B residues 1-174 containing G12C, G12V, G12D, G13D, Q61L, WT; made in house; host or cells: E. coli BL21(DE3) with pBirA
Method: (§1) Nucleotide exchange of RAS. Purified RAS proteins used in binding experiment and crystallization were prepared by diluting stock protein (typically containing 20-250 μM RAS) 25 times with 20 mM Tris-Cl buffer pH 7.5 containing 5 mM EDTA, 0.1 mM DTT and 1 mM final concentration of a nucleotide (GDP or GTPγS). Samples were incubated at 30° C. for 30 minutes. MgCl2 was then added to the sample at a final concentration of 20 mM and the solution was further incubated on ice for at least 5 minutes prior to use.
(§2) Monobody development. General procedures for the development of monobodies against purified protein targets have been described previously. After four rounds of phage display library selection using biotinylated KRAS(G12C) at concentrations of 100 nM, 100 nM, 50 nM and 50 nM, the genes encoding monobodies from the enriched phage pool were transferred to a yeast display vector, which was used to construct yeast-display libraries. The yeast display libraries were sorted using a Bio-Rad S3e fluorescence-activated cell sorter or a […] II cell sorter (BD Biosciences). […] Single clones were then screened for selective binding to RAS mutants. The expression of monobodies on the surface of yeast cells were detected using mouse anti-VS and anti-mouse IgG-FITC conjugate. Target binding was detected with neutravidin Dylight650. Yeast cells were analyzed using an iQue flow cytometer (Sartorius). […]

KRAS(G13D) = target: T2, KRAS(G13D) (Homo sapiens, UniProt P01116, G13D); test: Yeast display binding titration, KRAS(G13D); conditions: GTPγS and GDP bound states
T2 construct: KRAS4B residues 1-174 containing G12C, G12V, G12D, G13D, Q61L, WT; made in house; host or cells: E. coli BL21(DE3) with pBirA
Method: as §1, §2

[1] = system: KRAS mutant and control cell lines; test: Cell proliferation assay of dox-inducible monobody-expressing cell lines; format: cell-based; conditions: KRAS(G12C) (H358 and H23) and KRAS(G12V) (PATU8902 and H441) cell lines
Method: Cell proliferation assay. […] Cells were then cultured in the presence of 1 μg/mL doxycycline for the entire duration of experiment (7-8 days) and subcultured into a new 12 well or 24 well plate every 2 days. […] The mixed culture was sampled periodically and the ratio between monobody expressing cells (mVenus and GFP positive) and non-expressing cells was determined using flow cytometry analysis (FIG. 11).

[2] = system: RAS-mediated signaling (pERK); test: ERK activation in HEK293T cells co-expressing monobody and RAS mutants; format: cell-based; conditions: expressed intracellularly as a genetically encoded reagent
Method: Transient expression of KRAS and monobody for confocal imaging and signaling experiments. HEK293T cells were cultured in glass-bottom 8-well chambers (ibidi GmbH) for colocalization assays or in a 12-well plate for signaling assays for one day prior to transfection. On the day of transfection at 70-90% confluency, media were replaced with antibiotics-free complete media (DMEM supplemented with 10% FBS). Transfection of pEGFP vectors encoding the appropriate mCherry fused monobodies and EGFP fused KRAS4B constructs was performed with lipofectamine 3000 (Thermo Fisher Scientific) and according to the manufacturer's recommended protocol. […]
Cell signaling assay and quantification of immunoblots. […] The supernatant was collected and measured for total protein amount using BCA assay (Thermo Scientific; 23227). […] The proteins were then transferred from the gel to a low fluorescence background PVDF membrane (Millipore; IPFL00010) or regular PVDF membrane (Millipore; ISEQ00010) depending on whether fluorescence or chemiluminescence detection was performed. Phospho-ERK was detected using a rabbit anti-pERK antibody (Cell Signaling; 9101S) and total ERK was detected using a rabbit anti-ERK antibody (Cell Signaling; 9102S). Monobody expression was detected using mouse anti-Flag antibody (Sigma; F3165) or anti-HA tag antibody (BioLegend; 901516). […]

binding (KRAS(WT)): did not detectably bind | binding (KRAS(G13D)): no binding
Sequence: VSSVPTKLEVVAATPTSLLISWDAPAVTVFFYVITYGETGHGVGAFQAFKVPGSKSTATISGLKPGVDYTITVYARGYSKQGPYKPSPISINYRT [12VC1]
proliferation [1]: potently inhibited | RAS-mediated signaling [2]: potently inhibited
